Data as given in US10233177B2, “TRPV1 vanilloid receptor antagonists with a bicyclic portion” (Serentrix LLC, priority 2010, dated 2019).
Where two headings read alike, the source gives them in different places.

Legend:
TRPV1 = TRPV1 (Rattus norvegicus (Rat), UniProt O35433); experiment: Ca2+ fluorescence measurements in cultured rat dorsal root ganglia neurons (capsaicin-induced calcium uptake); assay type: cell-based; details: for inhibition at 0.3 µM: DRG neuron
[1] = system: CCI-induced mechanical hyperalgesia; experiment: CCI-induced mechanical hyperalgesia (Randall-Selitto paw pressure); assay type: in vivo; details: rat CCI, 30 μmol/kg oral
Description: CCI-Induced Mechanical Hyperalgesia
Male SD rats (Charles River, Italy) weighing 250 g were anaesthetized with sodium pentobarbital (60 mg/kg, intraperitoneal (i.p.), 0.1 ml/10 g) and, under a dissecting microscope, the right common sciatic nerve was exposed at the level of the mid thigh and, proximal to the trifurcation of the nerve; four ligatures (4/0 chromic silk, Ethicon) were loosely tied around it, at about 0.5 mm spacing, until they elicited a brief twitch in the respective hind, taking care to preserve epineural circulation. Sham-operated animals (sciatic exposure without ligation) were used as controls. 14 days after the surgery, mechanical hyperalgesia was assessed using an analgesimeter (Ugo Basile, Italy, Randall-Selitto analgesic apparatus). This device generated a mechanical force on the affected paw and the nociceptive threshold was defined as the force (in g) at which the rat withdraws the paw (with a cut-off of 450 g). Two baseline measurement values were obtained 75 and 45 min before the actual test. After the second baseline measurement, animals were randomly allocated to the different treatment groups. Paw pressure test was performed 0, 75, 120, 165, 210 and 300 min after the oral administration of the compounds. All tested compounds were orally administrated (30 μmol/kg/10 ml) to rats by gavage.

[2] = system: CFA-induced tactile allodynia; experiment: CFA-induced tactile allodynia in rats (von Frey filaments); assay type: in vivo; details: rat, 30 μmol/kg oral
Description: CFA-Induced Tactile Allodynia in Rats
Male SD rats (Charles River, Italy) weighing 100 to 250 g were put into a clean plastic cage on an elevated glass plate for 30 min before the test. This lets the animals accommodate to their new environment before testing. Complete Freund's adjuvant (CFA, 50 μl) was injected into the plantar surface of the right hind paw. Tactile stimulation was performed with von Frey filaments (from 0.07 to 26 g). All antagonists were orally administered 22 hours after to the CFA administration. Von Frey filaments were applied 30, 60, 120, 180, 240, 300 and 360 min after compound administrations. Median 50% (EG50) threshold of von Frey filaments was calculated by using the up-down method as previously described. All tested compounds were suspended in 0.5% Methocel and 2.5% Tween80 and orally administrated (30 μmol/kg/10 ml) to rats by gavage 24 hours after the CFA treatment. CFA was injected into the plantar surface of a rat's hind paw at a fixed dose of 50 μl by the use of a micro syringe.

[3] = system: CFA-induced thermal hyperalgesia; experiment: CFA-induced thermal hyperalgesia in rats (Hargreaves' test); assay type: in vivo; details: rat, 30 μmol/kg oral; read-out: reversal of CFA-induced thermal hyperalgesia (maximal reversal activity / % of reversion)
Source text: CFA-Induced Thermal Hyperalgesia in Rats
This method was used for the determination of acute nociceptive thermal threshold and combines a chemical stimulus and heat for measuring pain sensitivity. Male SD rats (Charles River, Italy) weighing 100 to 250 gr. were used. Anti-hyperalgesic effects were investigated by using the Hargreaves' test. Complete Freund's Adjuvant (CFA; Sigma, USA) was used to induce thermal hyperalgesia. CFA contains killed Mycobacterium tuberculosis and is designed to provide continuous release of antigens necessary for stimulating a strong, persistent immune response. This effect causes the reduction of the hind paw withdrawal response latency induced by heat during the Hargreaves' test. Thermal stimulation was performed 30, 60, 120 and 180 (240 min only if needed) minutes after the oral administration of the antagonists. During the CFA-induced thermal hyperalgesia experiments two different solubilization protocols were used: when items presented an amino group, a pH=2 aqueous solution of HCl and 2.5% Tween80 was used; otherwise molecules were suspended in 0.5% Methocel and 2.5% Tween80. Compounds were orally administrated (30 μmol/kg/10 ml) to rats 24 hours after the CFA treatment. CFA was injected into the plantar surface of a rat's hind paw at a fixed dose of 50 μl by the use of a micro syringe.

[4] = Table 1, formula IA-C, 300 nM against calcium uptake induced by 30 nM capsaicin, rat DRG neurons, read-out: % inhibition at 300 nM
[5] = capsaicin-induced calcium uptake, rat DRG neurons, read-out: inhibition of the calcium uptake
[6] = Table 1, against capsaicin-evoked [Ca2+]i mobilization, rat DRG neurons, read-out: IC50
[7] = rat DRG neurons, read-out: IC50 against capsaicin-evoked [Ca2+]i mobilization
[8] = 300 nM, rat DRG neurons, read-out: abolition of capsaicin response at 300 nM
[9] = Table 3, formula IF-H, 300 nM against calcium uptake induced by 30 nM capsaicin, rat DRG neurons, read-out: % inhibition at 300 nM

TRPV1, sequence (O35433 whole entry): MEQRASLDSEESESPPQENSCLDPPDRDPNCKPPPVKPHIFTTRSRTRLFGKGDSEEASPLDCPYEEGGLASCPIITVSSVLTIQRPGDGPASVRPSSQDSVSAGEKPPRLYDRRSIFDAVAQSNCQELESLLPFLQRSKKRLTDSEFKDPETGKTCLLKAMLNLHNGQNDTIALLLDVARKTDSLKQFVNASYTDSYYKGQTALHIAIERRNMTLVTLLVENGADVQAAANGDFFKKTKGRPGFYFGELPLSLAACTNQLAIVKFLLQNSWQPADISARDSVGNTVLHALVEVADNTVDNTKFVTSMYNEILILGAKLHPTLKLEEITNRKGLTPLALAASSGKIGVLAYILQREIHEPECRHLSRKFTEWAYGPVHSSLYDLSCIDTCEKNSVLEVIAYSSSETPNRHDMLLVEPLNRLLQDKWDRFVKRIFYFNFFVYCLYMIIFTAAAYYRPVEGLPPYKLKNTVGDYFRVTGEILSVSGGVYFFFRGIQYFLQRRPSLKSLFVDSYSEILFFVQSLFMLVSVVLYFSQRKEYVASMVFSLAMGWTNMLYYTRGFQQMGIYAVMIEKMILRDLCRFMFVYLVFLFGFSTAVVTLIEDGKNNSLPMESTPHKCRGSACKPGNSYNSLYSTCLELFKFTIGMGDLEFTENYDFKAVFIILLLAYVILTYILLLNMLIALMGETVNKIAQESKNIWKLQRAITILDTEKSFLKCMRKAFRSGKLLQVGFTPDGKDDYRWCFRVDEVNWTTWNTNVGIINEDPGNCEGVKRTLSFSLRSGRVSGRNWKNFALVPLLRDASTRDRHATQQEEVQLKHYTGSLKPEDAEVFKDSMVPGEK

O=C(NCc1ccc(C(F)(F)F)cc1)Nc1cccc2[nH]c(=O)[nH]c12 [Example 1, 1-(4-(trifluoromethyl)benzyl)-3-(2,3-dihydro-2-oxo-1H-benzo[d]imidazol-4-yl)urea]
inhibition at 0.3 µM (TRPV1; [4]): 84% | inhibition at 0.3 µM (TRPV1; [5]): > 80% | anti-hyperalgesic activity (in words) [1]: relevant and long lasting anti-hyperalgesic activity | reversal of hyperalgesia within the first 2 hours [1]: at least 80%

O=C(NCc1ccc(Cl)cc1N1CCCC1)Nc1cccc2[nH]c(=O)[nH]c12 [Example 12, 1-(4-chloro-2-(pyrrolidin-1-yl)benzyl)-3-(2,3-dihydro-2-oxo-1H-benzo[d]imidazol-4-yl)urea]
inhibition at 0.3 µM (TRPV1; [4]): 88% | inhibition at 0.3 µM (TRPV1; [5]): > 80% | IC50 (TRPV1; [6]): 6 nM | IC50 (TRPV1; [7]): 6 nM | duration of effect on CFA-induced tactile allodynia, post-treatment [2]: up to 300 min | reversal of CFA-induced tactile allodynia [2]: 62% | inhibition in vivo at 30 µmol/kg [3]: 65%

O=C(NCc1ccc(Cl)cc1N1CCCCC1)Nc1cccc2[nH]c(=O)[nH]c12 [Example 13, 1-(4-chloro-2-(piperidin-1-yl)benzyl)-3-(2,3-dihydro-2-oxo-1H-benzo[d]imidazol-4-yl)urea]
inhibition at 0.3 µM (TRPV1; [8]): ~100% | inhibition at 0.3 µM (TRPV1; [4]): 96% | inhibition at 0.3 µM (TRPV1; [5]): > 80% | IC50 (TRPV1; [6]): 1.8 nM | IC50 (TRPV1; [7]): 1.8 nM | anti-hyperalgesic activity (in words) [1]: relevant and long lasting anti-hyperalgesic activity | reversal of hyperalgesia within the first 2 hours [1]: at least 80% | inhibition in vivo at 30 µmol/kg [3]: 60%

O=C1COc2c(cccc2NC(=O)NCc2ccc(Cl)cc2N2CCCC2)N1 [Example 51, 1-(4-chloro-2-(pyrrolidin-1-yl)benzyl)-3-(3,4-dihydro-3-oxo-2H-benzo[b][1,4]oxazin-8-yl)urea]
inhibition at 0.3 µM (TRPV1; [8]): ~100% | inhibition at 0.3 µM (TRPV1; [4]): 100% | inhibition at 0.3 µM (TRPV1; [5]): > 80% | IC50 (TRPV1; [6]): 0.1 nM | IC50 (TRPV1; [7]): 1.8 nM | duration of effect on CFA-induced tactile allodynia, post-treatment [2]: shorter duration | reversal of CFA-induced tactile allodynia [2]: 61% | inhibition in vivo at 30 µmol/kg [3]: 30%

O=C(NCc1ccc(C(F)(F)F)cc1N1CCCC1)Nc1cccc2[nH]c(=O)[nH]c12 [Example 5, 1-(4-(trifluoromethyl)-2-(pyrrolidin-1-yl)benzyl)-3-(2,3-dihydro-2-oxo-1H-benzo[d]imidazol-4-yl)urea]
inhibition at 0.3 µM (TRPV1; [8]): ~100% | inhibition at 0.3 µM (TRPV1; [4]): 100% | inhibition at 0.3 µM (TRPV1; [5]): > 80% | IC50 (TRPV1; [6]): 1 nM | IC50 (TRPV1; [7]): 1 nM | duration of effect on CFA-induced tactile allodynia, post-treatment [2]: up to 240 min | reversal of CFA-induced tactile allodynia [2]: 60% | anti-hyperalgesic activity (in words) [1]: relevant and long lasting anti-hyperalgesic activity | reversal of hyperalgesia within the first 2 hours [1]: at least 80% | inhibition in vivo at 30 µmol/kg [3]: 53%

O=C1COc2c(cccc2NC(=O)NCc2ccc(C(F)(F)F)cc2N2CCCC2)N1 [Example 47, 1-(4-(trifluoromethyl)-2-(pyrrolidin-1-yl)benzyl)-3-(3,4-dihydro-3-oxo-2H-benzo[b][1,4]oxazin-8-yl)urea]
inhibition at 0.3 µM (TRPV1; [8]): ~100% | inhibition at 0.3 µM (TRPV1; [4]): 100% | inhibition at 0.3 µM (TRPV1; [5]): > 80% | IC50 (TRPV1; [6]): 0.7 nM | IC50 (TRPV1; [7]): 0.7 nM | inhibition in vivo at 30 µmol/kg [3]: 46%

O=C(NCc1ccc(F)cc1C(F)(F)F)Nc1cccc2oc(=O)[nH]c12 [Example 27, 1-(4-fluoro-2-(trifluoromethyl)benzyl)-3-(2,3-dihydro-2-oxobenzo[d]oxazol-4-yl)urea]
inhibition at 0.3 µM (TRPV1; [4]): 45%

O=C(NCc1ccc(C(F)(F)F)cc1N1CCCCC1)Nc1cccc2[nH]c(=O)[nH]c12 [Example 6, 1-(4-(trifluoromethyl)-2-(piperidin-1-yl)benzyl)-3-(2,3-dihydro-2-oxo-1H-benzo[d]imidazol-4-yl)urea]
inhibition at 0.3 µM (TRPV1; [8]): ~100% | inhibition at 0.3 µM (TRPV1; [4]): 95% | inhibition at 0.3 µM (TRPV1; [5]): > 80% | IC50 (TRPV1; [6]): 0.51 nM | IC50 (TRPV1; [7]): 0.51 nM | anti-hyperalgesic activity (in words) [1]: relevant and long lasting anti-hyperalgesic activity | reversal of hyperalgesia within the first 2 hours [1]: at least 80%

O=C(NCc1ccc(Cl)cc1N1CCC(O)C1)Nc1cccc2[nH]c(=O)[nH]c12 (stereo not shown) [Example 22, 1-(4-chloro-2-(3-hydroxypyrrolidin-1-yl)benzyl)-3-(2,3-dihydro-2-oxo-1H-benzo[d]imidazol-4-yl)urea]
inhibition at 0.3 µM (TRPV1; [4]): 48%

O=C1COc2cccc(C(=O)NCc3ccc(C(F)(F)F)cc3)c2N1 [Example 62, N-(4-(trifluoromethyl)benzyl)-3,4-dihydro-3-oxo-2H-benzo[b][1,4]oxazine-5-carboxamide]
inhibition at 0.3 µM (TRPV1; [9]): 8%

O=C1COc2c(cccc2NC(=O)NCc2ccc(C(F)(F)F)cc2N2CCCCC2)N1 [Example 48, 1-(4-(trifluoromethyl)-2-(piperidin-1-yl)benzyl)-3-(3,4-dihydro-3-oxo-2H-benzo[b][1,4]oxazin-8-yl)urea]
inhibition at 0.3 µM (TRPV1; [8]): ~100% | inhibition at 0.3 µM (TRPV1; [4]): 100% | inhibition at 0.3 µM (TRPV1; [5]): > 80% | IC50 (TRPV1; [6]): 0.13 nM | IC50 (TRPV1; [7]): 0.13 nM | inhibition in vivo at 30 µmol/kg [3]: 45%

O=C(NCc1ccc(C(F)(F)F)o1)Nc1cccc2[nH]c(=O)[nH]c12 [Example 23, 1-(5-(trifluoromethyl-furan-2-yl)-methyl)-3-(2,3-dihydro-2-oxo-1H-benzo[d]imidazol-4-yl)urea]
inhibition at 0.3 µM (TRPV1; [4]): 82% | inhibition at 0.3 µM (TRPV1; [5]): > 80% | IC50 (TRPV1; [6]): 108 nM | inhibition in vivo at 30 µmol/kg [3]: 46%

O=C1COc2cccc(OC(=O)NCc3ccc(C(F)(F)F)cc3)c2N1 [Example 65, 3,4-dihydro-3-oxo-2H-benzo[b][1,4]oxazin-5-yl 4-(trifluoromethyl)benzylcarbamate]
inhibition at 0.3 µM (TRPV1; read-out: % inhibition at 300 nM): 4%

CN(C)CCOc1cc(C(F)(F)F)ccc1CNC(=O)Nc1cccc2[nH]c(=O)[nH]c12 [Example 73, 1-[[2-(2-dimethylaminoethoxy)-4-(trifluoromethyl)phenyl]methyl]-3-(2-oxo-1,3-dihydrobenzimidazol-4-yl)urea]
inhibition at 0.3 µM (TRPV1; [4]): 25% | IC50 (TRPV1; [6]): 1.8 nM | IC50 (TRPV1; [7]): 0.1 nM

CC(C)(C)c1ccc(CNC(=O)Nc2cccc3[nH]c(=O)[nH]c23)cc1 [Example 70, 1-[(4-tert-butylphenyl)methyl]-3-(2-oxo-1,3-dihydrobenzimidazol-4-yl)urea]
inhibition at 0.3 µM (TRPV1; [8]): ~100% | inhibition at 0.3 µM (TRPV1; [4]): 98% | inhibition at 0.3 µM (TRPV1; [5]): > 80%

O=C(NCc1ccc(N2CCCC2)cc1)Nc1cccc2[nH]c(=O)[nH]c12 [Example 15, 1-(4-(pyrrolidin-1-yl)benzyl)-3-(2,3-dihydro-2-oxo-1H-benzo[d]imidazol-4-yl)urea]
inhibition at 0.3 µM (TRPV1; [4]): 54%

O=C1COc2c(cccc2C(=O)NCc2ccc(C(F)(F)F)cc2N2CCCCC2)N1 [Example 64, N-(4-(trifluoromethyl)-2-(piperidin-1-yl)benzyl)-3,4-dihydro-3-oxo-2H-benzo[b][1,4]oxazine-8-carboxamide]
inhibition at 0.3 µM (TRPV1; [9]): 65%

CN(C)c1nc(C(F)(F)F)ccc1CNC(=O)Nc1cccc2c1OCC(=O)N2 [Example 86, 1-[[2-dimethylamino-6-(trifluoromethyl)-3-pyridyl]methyl]-3-(3-oxo-4H-1,4-benzoxazin-8-yl)urea]
inhibition at 0.3 µM (TRPV1; [8]): ~100% | inhibition at 0.3 µM (TRPV1; [4]): 100% | inhibition at 0.3 µM (TRPV1; [5]): > 80% | IC50 (TRPV1; [6]): 17 nM
